Like-named read-outs stand apart in the source and are kept apart here.
Columns and labels:
Format in all cases: cell-based
human TLR9 = biological target: T1, human TLR9 (Homo sapiens, UniProt Q9NR96); experiment: TLR9 inhibition reporter assay (HEK-Blue cells, secreted embryonic alkaline phosphatase reporter); conditions: HEK-Blue cells overexpressing human TLR9, stimulated with ODN2006 5 nM
T1 construct: host or cells: HEK-Blue cells (HEK293-derived reporter line)
T1 sequence (Q9NR96 26-1032): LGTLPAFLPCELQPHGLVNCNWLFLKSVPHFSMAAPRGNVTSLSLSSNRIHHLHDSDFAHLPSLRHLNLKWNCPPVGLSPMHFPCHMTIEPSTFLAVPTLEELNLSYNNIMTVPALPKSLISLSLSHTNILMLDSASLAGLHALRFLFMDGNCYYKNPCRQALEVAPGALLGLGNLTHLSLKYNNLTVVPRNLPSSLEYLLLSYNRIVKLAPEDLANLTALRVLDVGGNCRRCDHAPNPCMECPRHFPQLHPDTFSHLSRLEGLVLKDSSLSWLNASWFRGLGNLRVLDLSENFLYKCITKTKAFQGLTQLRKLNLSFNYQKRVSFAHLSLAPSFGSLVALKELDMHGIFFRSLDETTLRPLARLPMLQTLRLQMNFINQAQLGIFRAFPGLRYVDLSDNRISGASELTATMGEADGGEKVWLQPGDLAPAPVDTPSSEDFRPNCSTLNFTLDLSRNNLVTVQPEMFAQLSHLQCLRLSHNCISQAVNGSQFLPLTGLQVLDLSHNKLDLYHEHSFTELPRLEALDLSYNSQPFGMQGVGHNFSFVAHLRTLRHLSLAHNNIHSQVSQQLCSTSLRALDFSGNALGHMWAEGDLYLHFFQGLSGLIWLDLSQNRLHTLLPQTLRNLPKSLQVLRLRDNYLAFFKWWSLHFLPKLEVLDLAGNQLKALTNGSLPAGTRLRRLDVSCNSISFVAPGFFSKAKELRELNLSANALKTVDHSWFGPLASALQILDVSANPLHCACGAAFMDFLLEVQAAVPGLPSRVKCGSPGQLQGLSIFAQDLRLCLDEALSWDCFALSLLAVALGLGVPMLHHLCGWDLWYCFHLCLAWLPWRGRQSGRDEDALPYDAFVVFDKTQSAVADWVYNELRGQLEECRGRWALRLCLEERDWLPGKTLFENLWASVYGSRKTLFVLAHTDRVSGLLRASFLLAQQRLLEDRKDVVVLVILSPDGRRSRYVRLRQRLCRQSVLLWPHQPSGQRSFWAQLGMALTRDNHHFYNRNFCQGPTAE
Procedure, shortened: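 Agonist-driven SEAP output was measured in HEK-Blue reporter cells carrying human TLR7 (gardiquimod 7.5 μM), TLR8 (R848 15.9 μM) or TLR9 (ODN2006 5 nM). Compounds at 0.05 nM–50 μM final were added 30 min before stimulation at room temperature. After 22 h at 37 °C, percent inhibition was taken against agonist/DMSO wells and a reference inhibitor.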

human TLR7 = biological target: T2, human TLR7 (Homo sapiens, UniProt Q9NYK1); experiment: TLR7 inhibition reporter assay (HEK-Blue cells, secreted embryonic alkaline phosphatase reporter); conditions: HEK-Blue cells overexpressing human TLR7, stimulated with gardiquimod 7.5 μM; read-out: TLR 7 IC50
T2 construct: host or cells: HEK-Blue cells (HEK293-derived reporter line)
T2 sequence (Q9NYK1 27-1049): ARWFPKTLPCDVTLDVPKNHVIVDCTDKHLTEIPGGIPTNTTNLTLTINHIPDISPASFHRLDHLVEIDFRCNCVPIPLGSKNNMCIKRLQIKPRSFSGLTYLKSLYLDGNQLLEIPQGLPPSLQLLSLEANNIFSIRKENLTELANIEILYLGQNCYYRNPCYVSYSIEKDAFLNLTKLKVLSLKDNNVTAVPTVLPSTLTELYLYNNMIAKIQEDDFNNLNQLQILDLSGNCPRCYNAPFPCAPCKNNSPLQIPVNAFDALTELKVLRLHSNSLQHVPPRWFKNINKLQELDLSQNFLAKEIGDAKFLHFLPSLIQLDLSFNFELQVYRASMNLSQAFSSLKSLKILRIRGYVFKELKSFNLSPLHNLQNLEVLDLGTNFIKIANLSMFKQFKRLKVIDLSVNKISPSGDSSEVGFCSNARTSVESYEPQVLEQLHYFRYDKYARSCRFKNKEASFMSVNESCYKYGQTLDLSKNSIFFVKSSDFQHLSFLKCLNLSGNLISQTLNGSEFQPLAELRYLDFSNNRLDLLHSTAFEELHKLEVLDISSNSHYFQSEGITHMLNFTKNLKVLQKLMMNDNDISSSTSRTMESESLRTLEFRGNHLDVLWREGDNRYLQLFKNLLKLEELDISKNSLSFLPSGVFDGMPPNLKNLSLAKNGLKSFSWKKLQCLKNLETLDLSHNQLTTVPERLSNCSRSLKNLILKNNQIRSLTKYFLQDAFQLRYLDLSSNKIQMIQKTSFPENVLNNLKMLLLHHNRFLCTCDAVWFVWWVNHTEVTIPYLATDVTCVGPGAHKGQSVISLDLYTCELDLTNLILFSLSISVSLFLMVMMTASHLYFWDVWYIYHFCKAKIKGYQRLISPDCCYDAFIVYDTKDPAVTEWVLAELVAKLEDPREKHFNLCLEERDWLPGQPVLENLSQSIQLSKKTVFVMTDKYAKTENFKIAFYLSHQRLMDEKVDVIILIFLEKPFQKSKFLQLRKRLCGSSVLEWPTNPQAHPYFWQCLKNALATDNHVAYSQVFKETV
Description: (§1) TLR7/8/9 Inhibition Reporter Assays
(§2) HEK-Blue™-cells (Invivogen) overexpressing human TLR7, TLR8 or TLR9 receptors were used for screening inhibitors of these receptors using an inducible SLAP (secreted embryonic alkaline phosphatase) reporter gene under the control of the […] minimal promoter fused to five NF-κB and AP-1-binding sites. Briefly, cells are seeded into Greiner 384 well plates (15000 cells per well for TLR7, 20,000 for TLR8 and 25,000 for TLR9) and then treated with test compounds in DMSO to yield a final dose response concentration range of 0.05 nM-50 μM. After a 30 minute compound pre-treatment at room temperature, the cells are then stimulated with a TLR7 ligand (gardiquimod at a final concentration of 7.5 μM), TLR8 ligand (R848 at a final concentration of 15.9 μM) or TLR9 ligand (ODN2006 at a final concentration of 5 nM) to activate NF-κB and AP-1 which induce the production of SLAP. After a 22 hour incubation at 37° C., […], SLAP levels are determined with the addition of HEK-Blue™ Detection reagent (Invivogen), a cell culture medium that allows for detection of SLAP, according to manufacturer's specifications. The percent inhibition is determined as the […] in the HEK-Blue signal present in wells treated with agonist plus DMSO alone compared to wells treated with a known inhibitor.

human TLR8 = biological target: T3, human TLR8 (Homo sapiens, UniProt Q9NR97); experiment: TLR8 inhibition reporter assay (HEK-Blue cells, secreted embryonic alkaline phosphatase reporter); conditions: HEK-Blue cells overexpressing human TLR8, stimulated with R848 15.9 μM; read-out: TLR 8 IC50
T3 construct: host or cells: HEK-Blue cells (HEK293-derived reporter line)
T3 sequence (Q9NR97 27-1041): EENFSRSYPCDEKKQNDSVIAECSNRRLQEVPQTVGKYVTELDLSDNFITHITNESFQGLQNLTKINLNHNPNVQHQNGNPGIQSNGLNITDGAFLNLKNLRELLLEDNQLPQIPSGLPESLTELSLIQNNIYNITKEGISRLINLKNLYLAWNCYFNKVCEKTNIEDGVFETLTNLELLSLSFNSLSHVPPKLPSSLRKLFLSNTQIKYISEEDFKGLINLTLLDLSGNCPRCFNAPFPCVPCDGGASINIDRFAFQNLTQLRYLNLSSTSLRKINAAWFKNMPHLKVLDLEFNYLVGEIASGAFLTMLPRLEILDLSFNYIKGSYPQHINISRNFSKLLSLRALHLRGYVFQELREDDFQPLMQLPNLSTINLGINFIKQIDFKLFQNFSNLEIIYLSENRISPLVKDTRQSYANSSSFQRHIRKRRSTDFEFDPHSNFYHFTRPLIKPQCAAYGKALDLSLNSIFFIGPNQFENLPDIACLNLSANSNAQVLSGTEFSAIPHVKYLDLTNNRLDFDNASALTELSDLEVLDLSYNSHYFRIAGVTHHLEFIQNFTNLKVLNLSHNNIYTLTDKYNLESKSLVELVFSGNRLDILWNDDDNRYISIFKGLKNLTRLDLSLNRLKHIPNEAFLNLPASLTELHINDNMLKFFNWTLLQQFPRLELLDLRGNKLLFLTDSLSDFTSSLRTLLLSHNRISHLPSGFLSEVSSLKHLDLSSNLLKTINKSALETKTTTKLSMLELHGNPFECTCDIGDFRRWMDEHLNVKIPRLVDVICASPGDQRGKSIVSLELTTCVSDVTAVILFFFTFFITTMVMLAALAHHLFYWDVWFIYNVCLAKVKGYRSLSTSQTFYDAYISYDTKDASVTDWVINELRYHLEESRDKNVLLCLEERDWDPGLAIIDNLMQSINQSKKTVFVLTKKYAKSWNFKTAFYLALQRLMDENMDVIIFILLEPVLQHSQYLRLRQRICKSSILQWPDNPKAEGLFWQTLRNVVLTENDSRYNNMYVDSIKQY
Description: as §1, §2

[1] = 22 hour incubation, reporter readout

| IC50 (human TLR9; [1]) [nM] | IC50 (human TLR7) [nM] | IC50 (human TLR8) [nM] | IC50 (human TLR9; read-out: TLR 9 IC50) [nM] | SMILES |
| --- | --- | --- | --- | --- |
| 28 | 2500 | > 50000 | – | COc1ccc(-c2nc3c(C)cc(C4CCN(C5CC6CCC(C5)N6CC(C)C)CC4)cc3[nH]2)cc1OC (single isomer, unassigned) [Example 19, 2-(3,4-dimethoxyphenyl)-6-(1-(8-isobutyl-8-azabicyclo[3.2.1]octan-3-yl)piperidin-4-yl)-4-methyl-1H-benzo[d]imidazole] |
| 69 | 4100 | > 50000 | – | COc1ccc(-c2nc3c(C)cc(C4CCN(C5CC6CCC(C5)N6CC(C)C)CC4)cc3[nH]2)cc1OC (single isomer, unassigned) [Example 20, 2-(3,4-dimethoxyphenyl)-6-(1-(8-isobutyl-8-azabicyclo[3.2.1]octan-3-yl)piperidin-4-yl)-4-methyl-1H-benzo[d]imidazole] |
| 72 | 18600 | > 25000 | – | Cc1cc(C2CCN(C3CC4CCC(C3)N4C(C)C)CC2)cc2c1nc(-c1ccc(S(C)(=O)=O)cc1)n2C (single isomer, unassigned) [Example 84, 6-(1-(8-isopropyl-8-azabicyclo[3.2.1]octan-3-yl)piperidin-4-yl)-1,4-dimethyl-2-(4-(methylsulfonyl)phenyl)-1H-benzo[d]imidazole] |
| 110 | 5700 | > 25000 | 106 | Cc1cc(C2CCN(C3CC4CCC(C3)N4C(C)C)CC2)cc2c1nc(-c1ccc(S(C)(=O)=O)cc1)n2C (single isomer, unassigned) [Example 85, 6-(1-(8-isopropyl-8-azabicyclo[3.2.1]octan-3-yl)piperidin-4-yl)-1,4-dimethyl-2-(4-(methylsulfonyl)phenyl)-1H-benzo[d]imidazole] |
| 160 | > 50000 | > 50000 | 162 | CC(C)N1C2CCC1CC(N1CCC(c3ccc4c(nc(-c5ccc(S(C)(=O)=O)cc5)n4C)c3F)CC1)C2 (single isomer, unassigned) [Example 89, 4-fluoro-5-(1-(8-isopropyl-8-azabicyclo[3.2.1]octan-3-yl)piperidin-4-yl)-1-methyl-2-(4-(methylsulfonyl)phenyl)-1H-benzo[d]imidazole] |
| 230 | > 50000 | > 50000 | 231 | CC(C)N1C2CCC1CC(N1CCC(c3ccc4c(nc(-c5ccc(S(C)(=O)=O)cc5)n4C)c3F)CC1)C2 (single isomer, unassigned) [Example 90, 4-fluoro-5-(1-(8-isopropyl-8-azabicyclo[3.2.1]octan-3-yl)piperidin-4-yl)-1-methyl-2-(4-(methylsulfonyl)phenyl)-1H-benzo[d]imidazole] |
| 110 | > 50000 | > 50000 | 105 | CC(C)N1C2CCC1CC(N1CCC(c3cc(F)c4c(c3)nc(-c3ccc(S(C)(=O)=O)cc3)n4C)CC1)C2 (single isomer, unassigned) [Example 92, 7-fluoro-5-(1-(8-isopropyl-8-azabicyclo[3.2.1]octan-3-yl)piperidin-4-yl)-1-methyl-2-(4-(methylsulfonyl)phenyl)-1H-benzo[d]imidazole] |
| 650 | > 50000 | > 50000 | – | CC(C)N1C2CCC1CC(N1CCC(c3cc(F)c4c(c3)nc(-c3ccc(S(C)(=O)=O)cc3)n4C)CC1)C2 (single isomer, unassigned) [Example 93, 7-fluoro-5-(1-(8-isopropyl-8-azabicyclo[3.2.1]octan-3-yl)piperidin-4-yl)-1-methyl-2-(4-(methylsulfonyl)phenyl)-1H-benzo[d]imidazole] |
| 73 | > 50000 | > 50000 | – | CC(C)N1C2CCC1CC(N1CCC(c3ccc4nc(-c5ccc(S(C)(=O)=O)cc5)[nH]c4c3F)CC1)C2 (single isomer, unassigned) [Example 94, 7-fluoro-6-(1-(8-isopropyl-8-azabicyclo[3.2.1]octan-3-yl)piperidin-4-yl)-2-(4-(methylsulfonyl)phenyl)-1H-benzo[d]imidazole] |
